# Data reported in patent US12655130B2 (ASSEMBLY BIOSCIENCES, INC., priority 2020, dated 2026).
# Test system: HBV viral load (viral production from HepAD38 cells)
# Test: Activity of test compounds on viral production from HepAD38 cells (viral load by qPCR of HBV core sequence)
# Assay type: cell-based
# Conditions: Hepatitis B virus, HePAD38, 120 h, viral load lowering, 5 days, qPCR of supernatant, read-out: VL HepAD38 EC50 range
# Outline: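 EC50 and CC50 come from four-parameter logistic fits: HBV core DNA in supernatant by TaqMan qPCR against DNA standards, normalised to DMSO controls, and cell viability by CellTiter-Glo. Cells were plated at 50,000/well without tetracycline (2% FBS) and exposed to compounds (highest 10 μM) for 5 days, 37 °C.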
row,SMILES,EC50 [nM]
1,"Cn1cnc(C2CC3CC(O)(c4c([N+](=O)[O-])cnn4C)CC3C2)c1C(=O)Nc1ccc(F)c(Cl)c1 (stereo not shown) [Example 127, N-(3-chloro-4-fluorophenyl)-4-(5-hydroxy-5-(1-methyl-4-nitro-1H-pyrazol-5-yl)octahydropentalen-2-yl)-1-methyl-1H-imidazole-5-carboxamide]",10 to 50
2,"Cn1cnc(C2CC3CC(O)(c4cc(NCC(C)(C)O)nn4C)CC3C2)c1C(=O)Nc1ccc(F)c(Cl)c1 (stereo not shown) [Example 214, N-(3-Chloro-4-fluorophenyl)-4-(5-hydroxy-5-(3-((2-hydroxy-2-methylpropyl)amino)-1-methyl-1H-pyrazol-5-yl)octahydropentalen-2-yl)-1-methyl-1H-imidazole-5-carboxamide]",< 10
3,"Cn1cnc(C2CC3CC(O)(c4c(Cl)c(N)nn4C)CC3C2)c1C(=O)Nc1ccc(F)c(Cl)c1 (stereo not shown) [Example 98, 4-(5-(3-amino-4-chloro-1-methyl-1H-pyrazol-5-yl)-5-hydroxyoctahydropentalen-2-yl)-N-(3-chloro-4-fluorophenyl)-1-methyl-1H-imidazole-5-carboxamide]",< 10
4,"CC(CO)Nc1cc(C2(O)CC3CC(c4ncn(C)c4C(=O)Nc4ccc(F)c(Cl)c4)CC3C2)n(C)n1 (stereo not shown) [Example 217, N-(3-Chloro-4-fluorophenyl)-4-(5-hydroxy-5-(3-((1-hydroxypropan-2-yl)amino)-1-methyl-1H-pyrazol-5-yl)octahydropentalen-2-yl)-1-methyl-1H-imidazole-5-carboxamide]",< 10
5,"CN1CCN(C2CC3CC(c4ncn(C)c4C(=O)Nc4ccc(F)c(Cl)c4)CC3C2)CC1 (stereo not shown) [Example 18, N-(3-Chloro-4-fluorophenyl)-1-methyl-4-(5-(4-methylpiperazin-1-yl)octahydropentalen-2-yl)-1H-imidazole-5-carboxamide]",10 to 50
6,"CC(C)n1cc(C(F)(F)F)c(C2(O)CC3CC(c4ncn(C)c4C(=O)Nc4ccc(F)c(Cl)c4)CC3C2)n1 (stereo not shown) [Example 160, N-(3-Chloro-4-fluorophenyl)-4-(5-hydroxy-5-(1-isopropyl-4-(trifluoromethyl)-1H-pyrazol-3-yl)octahydropentalen-2-yl)-1-methyl-1H-imidazole-5-carboxamide]",< 10
7,"Cn1cc(C2(O)CC3CC(c4ncn(C)c4C(=O)Nc4ccc(F)c(Cl)c4)CC3C2)c(C(O)CO)n1 (stereo not shown) [Example 190, N-(3-Chloro-4-fluorophenyl)-4-(5-(3-(1,2-dihydroxyethyl)-1-methyl-1H-pyrazol-4-yl)-5-hydroxyoctahydropentalen-2-yl)-1-methyl-1H-imidazole-5-carboxamide]",< 10
8,"Cn1cnc(C2CC3CC(O)(c4cc(C(N)=O)nn4C)CC3C2)c1C(=O)Nc1ccc(F)c(Cl)c1 (stereo not shown) [Example 176, 5-(5-(5-((3-Chloro-4-fluorophenyl)carbamoyl)-1-methyl-1H-imidazol-4-yl)-2-hydroxyoctahydropentalen-2-yl)-1-methyl-1H-pyrazole-3-carboxamide]",< 10
9,"CC(O)COc1cc(C2(O)CC3CC(c4ncn(C)c4C(=O)Nc4ccc(F)c(Cl)c4)CC3C2)n(C)n1 (single isomer, unassigned) [Example 209, N-(3-Chloro-4-fluorophenyl)-4-(5-hydroxy-5-(3-(2-hydroxypropoxy)-1-methyl-1H-pyrazol-5-yl)octahydropentalen-2-yl)-1-methyl-1H-imidazole-5-carboxamide]",< 10
10,"Cn1c(Cl)nc(C2CC3CC(O)CC3C2)c1C(=O)Nc1ccc(F)c(Cl)c1 (stereo not shown) [Example 22, 2-Chloro-N-(3-chloro-4-fluorophenyl)-4-(5-hydroxyoctahydropentalen-2-yl)-1-methyl-1H-imidazole-5-carboxamide]",< 10
11,"O=C1CC2CC(c3ncsc3C(=O)Nc3ccc(F)c(Cl)c3)CC2C1 (stereo not shown) [Example 38, N-(3-Chloro-4-fluorophenyl)-4-(5-oxooctahydropentalen-2-yl)thiazole-5-carboxamide]",< 10
12,"Cn1cc(CC2(O)CC3CC(c4ncn(C)c4C(=O)Nc4ccc(F)c(Cl)c4)CC3C2)cn1 (stereo not shown) [Example 130, N-(3-chloro-4-fluorophenyl)-4-(5-hydroxy-5-((1-methyl-1H-pyrazol-4-yl)methyl)octahydropentalen-2-yl)-1-methyl-1H-imidazole-5-carboxamide]",< 10
13,"CCOC(=O)CC1CC2CC(c3ncn(C)c3C(=O)Nc3ccc(F)c(Cl)c3)CC2C1 (stereo not shown) [Example 16, Ethyl 2-(5-(5-((3-chloro-4-fluorophenyl)carbamoyl)-1-methyl-1H-imidazol-4-yl)octahydropentalen-2-yl)acetate]",< 10
14,"Cn1cc(C2(O)CC3CC(c4ncn(C)c4C(=O)Nc4ccc(F)c(Cl)c4)CC3C2)cn1 (stereo not shown) [Example 121, N-(3-chloro-4-fluorophenyl)-4-(5-hydroxy-5-(1-methyl-1H-pyrazol-4-yl)octahydropentalen-2-yl)-1-methyl-1H-imidazole-5-carboxamide]",< 10
15,"CCn1nc(C(F)F)cc1C1(O)CC2CC(c3ncn(C)c3C(=O)Nc3ccc(F)c(F)c3)CC2C1 (stereo not shown) [Example 177, 4-(5-(3-(Difluoromethyl)-1-ethyl-1H-pyrazol-5-yl)-5-hydroxyoctahydropentalen-2-yl)-N-(3,4-difluorophenyl)-1-methyl-1H-imidazole-5-carboxamide]",< 10
16,"Cn1cnc(C2CC3CC(O)(c4c(C(N)=O)cnn4C)CC3C2)c1C(=O)Nc1ccc(F)c(Cl)c1 (stereo not shown) [Example 126, 5-(5-(5-((3-chloro-4-fluorophenyl)carbamoyl)-1-methyl-1H-imidazol-4-yl)-2-hydroxyoctahydropentalen-2-yl)-1-methyl-1H-pyrazole-4-carboxamide]",< 10
17,"CCn1cc(C2(O)CC3CC(c4ncn(C)c4C(=O)Nc4ccc(F)c(Cl)c4)CC3C2)c(C(F)(F)F)n1 (stereo not shown) [Example 151, N-(3-Chloro-4-fluorophenyl)-4-(5-(1-ethyl-3-(trifluoromethyl)-1H-pyrazol-4-yl)-5-hydroxyoctahydropentalen-2-yl)-1-methyl-1H-imidazole-5-carboxamide]",< 10
18,"CC(C)(C)OC(=O)N1CCn2c(nc(C3CC4CC(O)CC4C3)c2C(=O)Nc2ccc(F)c(Cl)c2)C1 (stereo not shown) [Example 84, tert-Butyl 3-((3-chloro-4-fluorophenyl)carbamoyl)-2-(5-hydroxy-octahydropentalen-2-yl)-5,6-dihydroimidazo[1,2-a]pyrazine-7(8H)-carboxylate]",50 to 500
19,"Cn1cnc(C2CC3CC(O)(c4c(F)c(O)nn4C)CC3C2)c1C(=O)Nc1ccc(F)c(Cl)c1 (stereo not shown) [Example 61, N-(3-Chloro-4-fluorophenyl)-4-(5-(4-fluoro-3-hydroxy-1-methyl-1H-pyrazol-5-yl)-5-hydroxyoctahydropentalen-2-yl)-1-methyl-1H-imidazole-5-carboxamide]",< 10
20,"Cn1cnc(C2CC3CC(O)(c4cc[nH]n4)CC3C2)c1C(=O)Nc1ccc(F)c(Cl)c1 (stereo not shown) [Example 116, N-(3-chloro-4-fluorophenyl)-4-(5-hydroxy-5-(1H-pyrazol-3-yl)octahydropentalen-2-yl)-1-methyl-1H-imidazole-5-carboxamide]",< 10
21,"CNS(=O)(=O)Nc1cc(C2(O)CC3CC(c4ncn(C)c4C(=O)Nc4ccc(F)c(Cl)c4)CC3C2)n(C)n1 (stereo not shown) [Example 201, N-(3-Chloro-4-fluorophenyl)-4-(5-hydroxy-5-(1-methyl-3-((N-methylsulfamoyl)amino)-1H-pyrazol-5-yl)octahydropentalen-2-yl)-1-methyl-1H-imidazole-5-carboxamide]",< 10
22,"Cc1nn(C)c(C2(O)CC3CC(c4ncn(C)c4C(=O)Nc4ccc(F)c(Cl)c4)CC3C2)c1F (stereo not shown) [Example 92, N-(3-chloro-4-fluorophenyl)-4-(5-(4-fluoro-1,3-dimethyl-1H-pyrazol-5-yl)-5-hydroxyoctahydropentalen-2-yl)-1-methyl-1H-imidazole-5-carboxamide]",< 10
23,"Cn1cnc(C2CC3CC(O)(c4cc([N+](=O)[O-])n[nH]4)CC3C2)c1C(=O)Nc1ccc(F)c(Cl)c1 (stereo not shown) [Example 146, N-(3-Chloro-4-fluorophenyl)-4-(5-hydroxy-5-(3-nitro-1H-pyrazol-5-yl)octahydropentalen-2-yl)-1-methyl-1H-imidazole-5-carboxamide]",< 10
24,"CC(=O)c1cc(C2(O)CC3CC(c4ncn(C)c4C(=O)Nc4ccc(F)c(Cl)c4)CC3C2)n(C)n1 (stereo not shown) [Example 58, 4-(5-(3-Acetyl-1-methyl-1H-pyrazol-5-yl)-5-hydroxyoctahydropentalen-2-yl)-N-(3-chloro-4-fluorophenyl)-1-methyl-1H-imidazole-5-carboxamide]",< 10
25,"CN(C)S(=O)(=O)c1cc(C2(O)CC3CC(c4ncn(C)c4C(=O)Nc4ccc(F)c(Cl)c4)CC3C2)n(C)n1 (stereo not shown) [Example 100, N-(3-chloro-4-fluorophenyl)-4-(5-(3-(N,N-dimethylsulfamoyl)-1-methyl-1H-pyrazol-5-yl)-5-hydroxyoctahydropentalen-2-yl)-1-methyl-1H-imidazole-5-carboxamide]",< 10
26,"Cn1cnc(C2CC3CC(O)(c4c(F)c(N)nn4C)CC3C2)c1C(=O)Nc1ccc(F)c(Cl)c1 (stereo not shown) [Example 52, 4-(5-(3-Amino-4-fluoro-1-methyl-1H-pyrazol-5-yl)-5-hydroxyoctahydropentalen-2-yl)-N-(3-chloro-4-fluorophenyl)-1-methyl-1H-imidazole-5-carboxamide]",< 10
27,"Cn1cnc(C2CC3CC(O)(c4ccnn4C)CC3C2)c1C(=O)Nc1ccc(F)c(Cl)c1 (stereo not shown) [Example 10, N-(3-chloro-4-fluorophenyl)-4-(5-hydroxy-5-(1-methyl-1H-pyrazol-5-yl)octahydropentalen-2-yl)-1-methyl-1H-imidazole-5-carboxamide]",< 10

# Same assay, conditions: viral load lowering, 5 days, qPCR of supernatant, read-out: VL HepAD38 EC50 range
row,SMILES,EC50 [nM]
1,"Cn1cnc(C2CC3CC(O)(Cn4cccn4)CC3C2)c1C(=O)Nc1ccc(F)c(Cl)c1 (single isomer, unassigned) [Example 129, 4-(5-((1H-pyrazol-1-yl)methyl)-5-hydroxyoctahydropentalen-2-yl)-N-(3-chloro-4-fluorophenyl)-1-methyl-1H-imidazole-5-carboxamide]",10 to 50
